{"source": "patent US20150125915A1", "about": "“Method for Producing Lactic Acid” (Kao Corporation, priority 2012, published 2015)", "format_in_all_cases": "cell-based", "key": {"[1]": {"test_system": "Rhizopus oryzae NBRC 4707", "assay": "Evaluation of ability to produce lactic acid-2, strain NBRC 4707", "settings": "0.5% (w/v) at spore germination, control of the strain without surfactant = 100", "method": "(§1) (1) Spore suspensions were prepared in the same way as in Production Example 1 using Rhizopus oryzae NBRC 4707, NBRC 4785, NBRC 5384 (=JCM14625), and NBRC 5418 strains obtained from a culture collection NBRC.\n(§2) (2) Mycelia were prepared from the spores of each strain under the same conditions as in Production Example 2 involving stirring at 100 rpm using 60 mL of a PDB medium non-supplemented or supplemented with 0.5% (w/v) (final concentration) of the surfactant sorbitan monolaurate (Rheodol(R) SP-L10, manufactured by Kao Corp.).\n(§3) (3) The total amount of the fungus bodies obtained in (2) was inoculated to 100 mL of an inorganic culture medium under the same conditions as in Production Example 3 to grow the mycelia. […]\n(§4) 30 g of the prepared wet fungus bodies of each strain of the genus Rhizopus was inoculated to 100 mL of an inorganic culture medium for lactic acid production evaluation (composition: 12.5% glucose, 0.1% ammonium sulfate, 0.06% potassium dihydrogen phosphate, 0.025% magnesium sulfate heptahydrate, 0.009% zinc sulfate heptahydrate, and 6.25% calcium carbonate; all the concentrations mean % (w/v)) applied to a 500-mL Erlenmeyer flask, and then cultured at 33.5° C. with stirring at 170 rpm. The production rate of lactic acid was determined by the same procedures as in Test Example 2. […]"}, "[2]": {"test_system": "fungus of the genus Rhizopus", "assay": "Evaluation of ability to produce lactic acid-4 (surfactant added to the lactic acid production medium)", "settings": "for Production rate of lactic acid (relative value): mycelia prepared with 0.5% (w/v), non-supplemented = 100", "method": "(§5) Specifically, the mycelia of a fungus of the genus Rhizopus were prepared by the method of Production Example 2 using the surfactant and then grown by the method of Production Example 3. 6.0 g of the obtained wet fungus bodies of the genus Rhizopus was inoculated to 40 mL of an inorganic culture medium for lactic acid production evaluation (composition: 8.0% glucose, 0.1% ammonium sulfate, 0.06% potassium dihydrogen phosphate, 0.025% magnesium sulfate heptahydrate, 0.009% zinc sulfate heptahydrate, and 5.0% calcium carbonate; all the concentrations mean % (w/v)) applied to a 200-mL Erlenmeyer flask, and then cultured at 35° C. with stirring at 170 rpm. The supernatant of the culture medium was recovered every 2 hours from 30 minutes after the fungus body inoculation. Glucose and lactic acid were quantified by the procedures described later in Reference Example 1. A relative value of the production rate of lactic acid was determined on the basis of the calculation method described in Reference Example 2.\nMycelia of a fungus of the genus Rhizopus were prepared in a medium containing 0.5% (w/v) (final concentration) of sorbitan monolaurate (Rheodol(R) SP-L10) by the same procedures as in Production Example 2 and then cultured by the same procedures as in Production Example 3. The fungus bodies were cultured by the sane procedures as in Test Example 2 and evaluated for its production rate of lactic acid. In this respect, the inorganic medium for lactic acid production evaluation was non-supplemented or supplemented with 0.1% (w/v), 0.2% (w/v), 0.5% (w/v), or 1% (w/v) (final concentration) of Rheodol(R) SP-L10. The amount of lactic acid was measured at 4 hours and 8.5 hours of the culture to calculate the production rate of lactic acid. The production rate of lactic acid was reduced in the medium supplemented with 0.1% (w/v) or higher of Rheodol(R) SP-L10 during lactic acid production.\n(§6) The concentration of lactic acid (unit: g of lactic acid/L of medium) in the supernatant sample of each culture medium was measured according to Reference Example 1 and divided by a time (unit: hr) required for change in lactic acid concentration to calculate the production rate of lactic acid per unit time (unit: g of lactic acid/L/hr). In addition, a relative value to the production rate of lactic acid under control conditions in each Production Example was determined."}, "[3]": {"test_system": "Rhizopus oryzae JCM14625 strain (=NBRC 5384)", "assay": "Evaluation of ability to produce lactic acid-1 (production rate of lactic acid)", "settings": "0.5% (w/v) surfactant in PDB medium at spore germination; rate in the absence of the surfactant = 100", "method": "as §5\nGlucose and lactic acid were quantified using an HPLC apparatus LaChrom Elite (manufactured by Hitachi High-Technologies Corp.). The analytical column used was a carbohydrate/organic acid analysis column HPX-87H (7.8 mm I.D.×30 cm, manufactured by Bio-Rad Laboratories, Inc.) connected with a guard column Cation H (4.6 mm I.D.×3.0 cm, manufactured by Bio-Rad Laboratories, Inc.). Elution was performed under conditions involving 10 mM sulfuric acid as an eluent, a flow rate of 0.85 mL/min, and a column temperature of 50° C. Glucose and lactic acid were detected using a differential refractive index detector (RI detector) and a UV detector (detection wavelength: 210 nm), respectively. The standard samples used were glucose (distributor code: 049-31165, manufactured by Wako Pure Chemical Industries Ltd.), and lithium L-lactate (product number: L2250, manufactured by Sigma-Aldrich Inc.). Quantification was performed on the basis of concentration calibration curves prepared using these standard samples.\nThe supernatant sample of each culture medium to be subjected to HPLC analysis was appropriately diluted in advance with 37 mM sulfuric acid and then applied to DISMIC-13cp (0.20 μm cellulose acetate membrane, manufactured by […] Group) or MULTI SCREEN MNHV45 (0.45 μm Durapore membrane, manufactured by EMD Millipore) to remove insoluble matter.\nas §6"}, "[4]": {"test_system": "Rhizopus oryzae NBRC 5384 (=JCM14625)", "assay": "Evaluation of ability to produce lactic acid-2, strain NBRC 5384", "settings": "0.5% (w/v) at spore germination, control of the strain without surfactant = 100", "method": "as §1, §2, §3, §4"}}}
{"substance": "Sorbitan monolaurate", "values": [{"measurement": "Production rate of lactic acid (relative value)", "setting": "[1]", "value": 135, "unit": "relative value"}, {"measurement": "Production rate of lactic acid (relative value)", "setting": "[2]; 0.1% w/v added to lactic acid production medium", "value": 93, "unit": "relative value"}, {"measurement": "Production rate of lactic acid (relative value)", "setting": "[2]; 0.2% w/v added to lactic acid production medium", "value": 67, "unit": "relative value"}, {"measurement": "Production rate of lactic acid (relative value)", "setting": "[2]; 0.5% w/v added to lactic acid production medium", "value": 4, "unit": "relative value"}, {"measurement": "Production rate of lactic acid (relative value)", "setting": "[2]; 1% w/v added to lactic acid production medium", "value": 0, "unit": "relative value"}, {"measurement": "Production rate of lactic acid (in words)", "setting": "[2]; medium supplemented with 0.1% (w/v) or higher during lactic acid production", "value": "reduced"}, {"measurement": "Production rate of lactic acid (relative value)", "setting": "[3]", "value": 152, "unit": "relative value"}, {"measurement": "Production rate of lactic acid (relative value)", "setting": "[4]", "value": 130, "unit": "relative value"}]}
